Measurements as given in EP0426021A1, “Condensed imidazole derivatives and processes for preparation thereof” (FUJISAWA PHARMACEUTICAL CO., LTD., priority 1989, dated 1991).

Tested on: spontaneous hypertensive rats
Settings: oral dose of 100 mg/kg, dissolved in water, male spontaneous hypertensive rats
Method: (B) Effect on spontaneous hypertensive rats
14 to 17-week-old male spontaneous hypertensive rats with mean arterial blood pressure of about 150 mmHg, weighing 270-326 g, were used. The animals were cannulated in the left femoral artery and the mean blood pressure and heart rate were measured with a pressure-transducer. The drugs were given orally. The animals were deprived of food for about 18 hours before oral dosing. The test drugs were dissolved in water, and given in oral dose of 100 mg/kg.

## CCCCc1nc2cccnc2n1Cc1ccc(-c2ccccc2-c2nnn[n-]2)cc1.[Na+] [compound ①, Sodium salt of 2-butyl-3-[[2′-(1H-tetrazol-5-yl)biphenyl-4-yl]methyl]-3H-imidazo[4,5-b]pyridine]
  Effect Max (mean ratio of maximum decrease of blood pressure): 17.6%
